In ChEMBL document CHEMBL1127115, “Synthesis and antihypertensive activity of KC-399, a benzopyran K+ channel opener with long duration of action and less tachycardia” (Bioorg Med Chem Lett, 1993):

What was measured:
Format in all cases: functional
Rattus norvegicus [1] = test: Heart rate was determined in conscious male spontaneously hypertensive rats (SHR) at a dose of 0.3 mg/Kg
Rattus norvegicus [2] = test: Mean blood pressure was determined in conscious male SHR at a dose of 0.1 mg/Kg
Rattus norvegicus [3] = test: Tested for antihypertensive activity in spontaneously hypertensive rats (SHR) as dose required to produce fall in mean blood pressure (MBP) by peroral administration
Rattus norvegicus [4] = test: Mean blood pressure was determined in conscious male spontaneously hypertensive rats (SHR) at a dose of 0.3 mg/Kg
Rattus norvegicus [5] = test: Tested for antihypertensive activity, duration of action at the dose of 0.03 mg/Kg was determined; ranges from 7-8h
Rattus norvegicus [6] = test: Antihypertensive activity in spontaneously hypertensive rats (SHR) expressed as dose required to produce fall in mean blood pressure (MBP) by peroral administration
Rattus norvegicus [7] = test: Heart rate was determined in conscious male spontaneously hypertensive rats (SHR) at a dose of 0.1 mg/Kg
Rattus norvegicus [8] = test: Heart rate was determined in conscious male spontaneously hypertensive rats (SHR) at a dose of 0.03 mg/Kg dose
Rattus norvegicus [9] = test: Mean blood pressure was determined in conscious male spontaneously hypertensive rats (SHR) at a dose of 0.03 mg/Kg
Rattus norvegicus [10] = species on record: Rattus norvegicus; test: Tested for effective concentration required to relax contraction induced by 30 mM KCl in rat aorta
Rattus norvegicus [11] = test: Mean blood pressure was determined in conscious male spontaneously hypertensive rats (SHR) at a dose of 0.01 mg/Kg
Rattus norvegicus [12] = test: Heart rate was determined in conscious male spontaneously hypertensive rats (SHR) at a dose of 0.01 mg/Kg dose

| SMILES | Heart rate (Rattus norvegicus [1]) | Blood pressure (Rattus norvegicus [2]) | Dose (Rattus norvegicus [3]) | Blood pressure (Rattus norvegicus [4]) | Duration of action (Rattus norvegicus [5]) | Dose (Rattus norvegicus [6]) | Heart rate (Rattus norvegicus [7]) | Heart rate (Rattus norvegicus [8]) | Blood pressure (Rattus norvegicus [9]) | EC50 (Rattus norvegicus [10]) | Blood pressure (Rattus norvegicus [11]) | Heart rate (Rattus norvegicus [12]) |
| --- | --- | --- | --- | --- | --- | --- | --- | --- | --- | --- | --- | --- |
| CC1(C)Oc2ccc(C#N)cc2[C@@H](N2CCCC2=O)[C@@H]1O [LEVCROMAKALIM] | 313 beats min-1 | 146 mmHg | 0.1 mg/kg | 153 mmHg | 7 h | 0.3 mg/kg | 318 beats min-1 |  |  |  |  |  |
| N#CCC/N=C(\S)C1=CC(CF)(CF)Oc2ccc([N+](=O)[O-])cc21 |  |  | 0.01 mg/kg |  | 7 h | 0.03 mg/kg |  | 323 beats min-1 | 155 mmHg | 0.3 nM | 156 mmHg | 310 beats min-1 |
| CC1(C)Oc2ccc(C#N)cc2C(N2CCCC2=O)C1O (stereo unspecified) [CROMAKALIM] |  |  |  |  |  |  |  |  |  | 150 nM |  |  |
